We go through three molecules from patent US20230143604A1, “QW DOSING OF GIP RECEPTOR AGONIST PEPTIDE COMPOUNDS AND USES THEREOF” (TAKEDA PHARMACEUTICAL COMPANY LIMITED, priority 2020, published 2023).

Starred links: 1 amine or outer side, 2 acyl side, 3 side chain; linkers in the order of their positions; H or OH if unused. Non-standard residues stand in square brackets, D forms with d. Residues, ends and D or L forms follow the SMILES beside them. Groups on a side chain read outwards from the residue. No end group written: not given here. *: point of attachment. C18 diacid = O=C(O)CCCCCCCCCCCCCCCCC(=O)*; γGlu = O=C(O)[C@H](CCC(=O)[*:2])N[*:1]; NMeY = CN[C@@H](Cc1ccc(O)cc1)C(=O)O; AEEA = NCCOCCOCC(=O)O; Aib = CC(C)(N)C(=O)O Some results are limits rather than exact numbers.

The nature of series [1]: Serum half-life and percentage remaining at 48 hours. In kind it is in vitro ADME. To be noted: both sexes, pH 7.4, human plasma, 500 nM peptide, 37° C.; for half-life at 500 nM: read-out: Serum t1/2 (converted); for remaining at 48 h, 500 nM: plasma (sodium heparin). The procedure:
Human plasma (mixed gender: sodium heparin is used as anti-coagulant; pre-adjusted to pH 7.4—NB alternative species may be used) is spiked with each test peptide (500 nM) and incubated·cn=3) at 37° C. for 48 hours in a 5% CO2 environment. Aliquots are taken at 0. 1, 2, 4, 7, 24 and […] and pH adjusted to pH 3 with 20% formic acid prior to analysis. Appropriate positive control compounds will be incubated in parallel, in addition to a no plasma control, sampled at 0 and 8 hours. All samples will be treated with ice-cold acetonitrile/methanol (4:1 (v/v)) containing internal standard prior to centrifugation at 2000 g and 4° C. for 10 minutes and subjected to LC-MS/MS analysis.
The samples are analyzed by LC-MS/MS using a 6500 (or equivalent) triple quadrupole mass spectrometer (AB Sciex) coupled to an appropriate Liquid Chromatography (LC) system. Protein binding and stability values are determined via peak area ratios using multiple reaction monitoring (MRM) parameters following compound optimisation. Multiple reaction monitoring (MRM) is a highly sensitive method of targeted mass spectrometry (MS) that can be used to selectively detect and quantify peptides based on the screening of specified precursor peptide-to-fragment ion transitions.

Series [2] can be described thus: Solubility in phosphate buffer pH 7.4. The gist of the method: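 3 mg of peptide treated with 100 μL portions of 200 mM phosphate buffer pH 7.4, sonicating/vortexing up to 1 min, with further buffer added until fully dissolved. Solubility then quantified by HPLC.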
Series [3] deals with T1, full-length human GIPR with an N-terminal FLAG tag, overexpressed on HEK-293T cells (human, UniProt P48546 22-466).
T1 sequence (looked up): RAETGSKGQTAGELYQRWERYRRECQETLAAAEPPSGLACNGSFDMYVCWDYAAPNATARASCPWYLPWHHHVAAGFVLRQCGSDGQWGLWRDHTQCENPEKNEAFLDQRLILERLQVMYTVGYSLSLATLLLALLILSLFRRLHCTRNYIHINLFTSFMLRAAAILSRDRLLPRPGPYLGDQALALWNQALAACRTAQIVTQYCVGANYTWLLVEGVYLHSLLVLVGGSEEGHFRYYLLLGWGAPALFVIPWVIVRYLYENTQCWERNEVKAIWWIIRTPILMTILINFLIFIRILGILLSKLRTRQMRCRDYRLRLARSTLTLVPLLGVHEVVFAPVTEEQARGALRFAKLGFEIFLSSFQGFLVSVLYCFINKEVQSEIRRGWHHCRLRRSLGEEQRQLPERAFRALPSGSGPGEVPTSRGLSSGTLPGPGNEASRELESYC
Put plainly: cell-based or functional assay.

Series [4] deals with full-length human GLP-1R with an N-terminal FLAG tag, overexpressed on HEK-293T cells (human, UniProt P43220 24-463). Put plainly: cell-based or functional assay.
The target in series [5] is dog plasma proteins. Nature of the series: plasma protein binding, ultracentrifugation, LC-MS/MS.
The target in series [6] is human plasma proteins. The description is as above.
Setting [7] is: pH 7.4, aqueous buffer, pH 7.4 Phosphate Buffer - Solubility, 200 mM Phosphate buffer pH 7.4.
Setting [8] is: pH 7.4, solubility in phosphate buffer at pH 7.4, 200 mM phosphate buffer pH 7.4.

Broadly, the share remaining is what is left of the initial amount, in per cent. A low value points to more turnover. Broadly, the solubility is the dissolved amount per volume that the medium holds.

For `CC[C@H](C)[C@H](NC(=O)[C@H](CO)NC(=O)[C@H](Cc1ccc(O)cc1)NC(=O)[C@H](CC(=O)O)NC(=O)[C@H](CO)NC(=O)[C@@H](NC(=O)[C@H](Cc1ccccc1)NC(=O)[C@@H](NC(=O)CNC(=O)[C@H](CCC(=O)O)NC(=O)C(C)(C)NC(=O)[C@H](Cc1ccc(O)cc1)NC)[C@@H](C)O)[C@@H](C)CC)C(=O)N[C@@H](C)C(=O)N[C@@H](CC(C)C)C(=O)N[C@@H](CC(=O)O)C(=O)N[C@@H](CCCNC(=N)N)C(=O)NC(C)(C)C(=O)N[C@@H](Cc1c[nH]cn1)C(=O)N[C@@H](CCC(N)=O)C(=O)NC(C)(C)C(=O)N[C@@H](CC(N)=O)C(=O)N[C@@H](Cc1ccccc1)C(=O)N[C@H](C(=O)N[C@@H](CC(N)=O)C(=O)N[C@@H](Cc1c[nH]c2ccccc12)C(=O)N[C@@H](CC(C)C)C(=O)N[C@@H](CC(C)C)C(=O)N[C@@H](C)C(=O)N[C@@H](CCC(N)=O)C(=O)N[C@@H](CCCCNC(=O)COCCOCCNC(=O)COCCOCCNC(=O)CC[C@H](NC(=O)CCCCCCCCCCCCCCCCC(=O)O)C(=O)O)C(=O)N1CCC[C@H]1C(=O)N[C@@H](CO)C(=O)N[C@@H](CO)C(=O)NCC(=O)N[C@@H](C)C(=O)N1CCC[C@H]1C(=O)N1CCC[C@H]1C(=O)N1CCC[C@H]1C(=O)N[C@@H](CO)C(N)=O)C(C)C` [Compound 1] (H-[NMeY][Aib]EGTFISDYSIALDR[Aib]HQ[Aib]NFVNWLLAQK([AEEA-AEEA-γGlu-C18 diacid])PSSGAPPPS-NH2), the half-life at 500 nM in series [1] is more than 48 h. In series [1], the amount remaining at 48 h, 500 nM was determined as 100%. The solubility was not below 30 mg/mL in series [2] (setting [7]) and not below 15 mg/mL in series [2] (setting [8]).

With `CC[C@H](C)[C@H](NC(=O)[C@H](CO)NC(=O)[C@H](Cc1ccc(O)cc1)NC(=O)[C@H](CC(=O)O)NC(=O)[C@H](CO)NC(=O)[C@@H](NC(=O)[C@H](Cc1ccccc1)NC(=O)[C@@H](NC(=O)CNC(=O)[C@H](CCC(=O)O)NC(=O)C(C)(C)NC(=O)[C@H](Cc1ccc(O)cc1)NC)[C@@H](C)O)[C@@H](C)CC)C(=O)N[C@@H](C)C(=O)N[C@@H](CC(C)C)C(=O)N[C@@H](CC(=O)O)C(=O)N[C@@H](CCCNC(=N)N)C(=O)N[C@H](C(=O)N[C@@H](Cc1c[nH]cn1)C(=O)N[C@@H](CCC(N)=O)C(=O)NC(C)(C)C(=O)N[C@@H](CC(N)=O)C(=O)N[C@@H](Cc1ccccc1)C(=O)N[C@H](C(=O)N[C@@H](CC(N)=O)C(=O)N[C@@H](Cc1c[nH]c2ccccc12)C(=O)N[C@@H](CC(C)C)C(=O)N[C@@H](CC(C)C)C(=O)N[C@@H](C)C(=O)N[C@@H](CCC(N)=O)C(=O)N[C@@H](CCCCNC(=O)COCCOCCNC(=O)COCCOCCNC(=O)CC[C@H](NC(=O)CCCCCCCCCCCCCCCCC(=O)O)C(=O)O)C(=O)N1CCC[C@H]1C(=O)N[C@@H](CO)C(=O)N[C@@H](CO)C(=O)NCC(=O)N[C@@H](C)C(=O)N1CCC[C@H]1C(=O)N1CCC[C@H]1C(=O)N1CCC[C@H]1C(=O)N[C@@H](CO)C(N)=O)C(C)C)[C@@H](C)CC` [Compound 2] (H-[NMeY][Aib]EGTFISDYSIALDRIHQ[Aib]NFVNWLLAQK([AEEA-AEEA-γGlu-C18 diacid])PSSGAPPPS-NH2), in series [1], the half-life at 500 nM was 24.1 h and the amount remaining at 48 h, 500 nM came out at 27%. In series [2] (setting [7]), the solubility is not below 30 mg/mL. The molecule further registered a solubility in series [2] (setting [8]) not below 15 mg/mL.

B1: Compound No. 293 (peptide)
peptide: [NMeY][Aib]EGTFISDYSIALDR[Aib]K([AEEA-AEEA-γGlu-γGlu-C18 diacid])Q[Aib]NFVNWLLAQSPSSGAPPPS-NH2
Regarding B1, in series [3], the “Human GIPR cAMP EC50, HEK293T” value stood at 0.0004 nM. The “Human GLP1R cAMP EC50, HEK293T” value in series [4] stood at 129 nM. Besides, in series [5], the Dog PPB (FUplasma), fraction unbound in plasma (fraction unbound) was less than 0.002. Also, in series [6], the Human PPB (FUplasma), fraction unbound in plasma (fraction unbound) is less than 0.002.
